# In ChEMBL document CHEMBL4342430, “An Agonist Radioligand for the Proinflammatory Lipid-Activated G Protein-Coupled Receptor GPR84 Providing Structural Insights” (J Med Chem, 2020):
# Active and inactive are the calls of the source. The rule behind the calls is not given here.
# How the values were obtained:
# [1] = target: T1, G-protein coupled receptor 84 (Homo sapiens, UniProt Q9NQS5); assay: Displacement of [3H]PSB-1584 from recombinant human GPR84 expressed in CHO cell membranes co-expressing beta-arrestin2 measured after 6 hrs by scintillation counting method
# [2] = target: T1, G-protein coupled receptor 84; assay: Positive allosteric modulation of recombinant human GPR84 expressed in CHO cell membranes co-expressing beta-arrestin2 assessed as increase in [3H]PSB-1584 binding measured after 6 hrs by scintillation counting method relative to control
# [3] = target: T1, G-protein coupled receptor 84; assay: Positive allosteric modulation of recombinant human GPR84 expressed in CHO cell membranes co-expressing beta-arrestin2 assessed as increase in [3H]PSB-1584 binding measured after 6 hrs by scintillation counting method
# [4] = target: T1, G-protein coupled receptor 84; assay: Agonist activity at recombinant human GPR84 expressed in CHO cell membranes co-expressing beta-arrestin2 assessed as inhibition of forskolin-stimulated [3H]cAMP accumulation preincubated for 5 mins followed by forskolin stimulation and measured after 15 mins by radioactive assay; type: functional, cell-based
# [5] = target: T1, G-protein coupled receptor 84; assay: Agonist activity at recombinant human GPR84 expressed in CHO cell membranes co-expressing beta-arrestin2 assessed as beta-arrestin 2 recruitment measured after 90 mins by beta-galactosidase based PathHunter assay
# [6] = target: G-protein coupled receptor 84 (Mus musculus) (UniProt Q8CIM5); assay: Displacement of [3H]PSB-1584 from GPR84 in mouse liver membranes measured after 6 hrs by scintillation counting method; type: cell membranes
# Rattus norvegicus [7] = species on record: Rattus norvegicus; assay: Displacement of [3H]PSB-1584 from GPR84 in rat brain striatum membranes measured after 6 hrs by scintillation counting method; type: cell membranes
# Rattus norvegicus [8] = species on record: Rattus norvegicus; assay: Displacement of [3H]PSB-1584 from GPR84 in rat liver membranes measured after 6 hrs by scintillation counting method; type: cell membranes
# Rattus norvegicus [9] = species on record: Rattus norvegicus; assay: Displacement of [3H]PSB-1584 from GPR84 in rat brain cortex membranes measured after 6 hrs by scintillation counting method; type: cell membranes
# [10] = target: T1, G-protein coupled receptor 84; assay: Selectivity ratio of EC50 for agonist activity at recombinant human GPR84 expressed in CHO cell membranes co-expressing beta-arrestin2 assessed as inhibition of forskolin-stimulated [3H]cAMP accumulation to Ki for displacement of [3H]PSB-1584 from recombinant human GPR84 expressed in CHO cell membranes co-expressing beta-arrestin2; type: functional
# [11] = target: T1, G-protein coupled receptor 84; assay: Displacement of [3H]PSB-1584 from recombinant human GPR84 expressed in CHO cell membranes co-expressing beta-arrestin2 at 100 uM measured after 6 hrs by scintillation counting method relative to control
# T1 sequence (Q9NQS5 whole entry): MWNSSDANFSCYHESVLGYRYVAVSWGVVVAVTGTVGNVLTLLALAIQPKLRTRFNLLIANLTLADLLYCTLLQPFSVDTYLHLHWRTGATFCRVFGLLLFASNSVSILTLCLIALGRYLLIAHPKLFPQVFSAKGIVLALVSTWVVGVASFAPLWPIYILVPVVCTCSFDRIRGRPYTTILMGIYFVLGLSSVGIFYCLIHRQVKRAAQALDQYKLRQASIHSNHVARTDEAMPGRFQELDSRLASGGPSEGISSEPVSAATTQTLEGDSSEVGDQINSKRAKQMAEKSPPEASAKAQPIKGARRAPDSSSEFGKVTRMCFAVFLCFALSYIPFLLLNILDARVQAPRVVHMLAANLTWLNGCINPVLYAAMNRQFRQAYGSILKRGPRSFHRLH
# G-protein coupled receptor 84 (Mus musculus), sequence (Q8CIM5 whole entry): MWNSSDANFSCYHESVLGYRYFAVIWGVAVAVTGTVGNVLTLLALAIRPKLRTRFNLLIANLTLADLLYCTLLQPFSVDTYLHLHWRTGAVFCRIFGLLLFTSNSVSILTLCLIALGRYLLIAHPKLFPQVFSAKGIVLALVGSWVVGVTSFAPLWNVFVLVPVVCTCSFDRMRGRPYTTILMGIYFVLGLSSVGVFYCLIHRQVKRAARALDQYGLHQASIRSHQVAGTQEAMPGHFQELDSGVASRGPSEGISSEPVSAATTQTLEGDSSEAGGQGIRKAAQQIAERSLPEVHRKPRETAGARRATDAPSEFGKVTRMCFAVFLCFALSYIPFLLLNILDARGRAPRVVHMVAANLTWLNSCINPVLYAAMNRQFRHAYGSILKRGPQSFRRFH
compound,measurement,setting,value
CCc1ccc(CCNc2cc(=O)[nH]c(=O)[nH]2)cc1,Ki,[1],0.582 nM
c1ccc2c(Cc3c[nH]c4ccccc34)c[nH]c2c1,%max,[2],< 100%
same,inhibition,[1],inactive
same,Activity,[3],Dose-dependent effect
Oc1cc(O)nc(SCCCc2ccccc2)n1,Ki,[1],0.7 nM
CCCCCCCC(=O)O [OCTANOIC ACID],EC50,[4],> 100000 nM
same,EC50,[5],> 100000 nM
same,Ki,[1],19600 nM
Fc1cccc2[nH]cc(Cc3c[nH]c4cccc(F)c34)c12,%max,[2],56%
same,EC50,[3],1520 nM
CCCCCNC(=O)c1cc(=O)[nH]c(=O)[nH]1,Ki,[1],1560 nM
CCCCCCCCN(C)c1cc(=O)[nH]c(=O)[nH]1,Ki,[1],3.6 nM
CCCCCCCCCCCCC(O)C(=O)O (racemic),EC50,[4],3860 nM
same,EC50,[5],4360 nM
same,Ki,[1],318 nM
CCCCCCOC(=O)c1cc(=O)[nH]c(=O)[nH]1,Ki,[1],1210 nM
O=c1cc(NCCc2ccccc2F)[nH]c(=O)[nH]1,Ki,[1],35.6 nM
CCCCCCCCCCNc1cc(O)nc(O)n1,Ki,[1],0.726 nM
O=C(NCCCc1ccccc1)c1cc(=O)[nH]c(=O)[nH]1,Ki,[1],1590 nM
CCCCCCNC(=O)c1cc(=O)[nH]c(=O)[nH]1,Ki,[1],469 nM
O=c1cc(N2CCN(c3ccc(Cl)cc3)CC2)[nH]c(=O)[nH]1,Ki,[1],44.4 nM
O=C(c1c[nH]c2ccccc12)c1c[nH]c2ccccc12,%max,[2],59%
same,EC50,[3],1930 nM
CCCCCCCNc1[nH]c(=O)[nH]c(=O)c1N=O,Ki,[1],58.6 nM
O=c1cc(O)nc(SCCc2ccc(C(F)(F)F)cc2)[nH]1,Ki,[1],36.7 nM
CCCCCCCCNc1[nH]c(=O)[nH]c(=O)c1Br,Ki,[1],34.7 nM
O=c1cc(NCCc2ccc(Br)cc2)[nH]c(=O)[nH]1,inhibition,[6],Active
same,inhibition,Rattus norvegicus [7],Active
same,inhibition,Rattus norvegicus [8],Active
same,inhibition,Rattus norvegicus [9],Active
CCC/C=C/CNc1cc(=O)[nH]c(=O)[nH]1,Ki,[1],37.4 nM
COc1ccc2[nH]cc(Cc3c[nH]c4ccc(OC)cc34)c2c1,%max,[2],46%
same,EC50,[3],103 nM
Cn1cc(Cc2cn(C)c3ccccc23)c2ccccc21,IC50,[1],14000 nM
Clc1ccc2[nH]cc(Cc3c[nH]c4ccc(Cl)cc34)c2c1,Selectivity ratio,[10],20
same,%max,[2],90%
same,EC50,[3],250 nM
O=c1cc(N2CCN(Cc3cccc4ccccc34)CC2)[nH]c(=O)[nH]1,Ki,[1],62.7 nM
CCCCCCCCNc1[nH]c(=O)[nH]c(=O)c1N=O,Ki,[1],37 nM
CCCCCCCCCCCCC(=O)O [TRIDECANOATE],EC50,[4],9610 nM
same,EC50,[5],1700 nM
same,Ki,[1],1930 nM
O=c1cc(O)nc(SCCc2ccc(Cl)cc2)[nH]1,Ki,[1],2.63 nM
Fc1cc2[nH]cc(Cc3c[nH]c4cc(F)c(F)cc34)c2cc1F,%max,[2],55%
same,EC50,[3],52.4 nM
O=c1cc(NCCc2ccc(Cl)cc2Cl)[nH]c(=O)[nH]1,Ki,[1],2.3 nM
Cc1ccc(CCNc2cc(=O)[nH]c(=O)[nH]2)cc1,Ki,[1],1.25 nM
CCCCCCSc1nc(O)cc(CCC)n1,Ki,[1],≥ 100000 nM
same,inhibition,[11],51%
O=c1cc(NCCCCCCCO)[nH]c(=O)[nH]1,Ki,[1],267 nM
Fc1cc2c(Cc3c[nH]c4cc(Cl)c(F)cc34)c[nH]c2cc1Cl,Selectivity ratio,[10],84
same,%max,[2],36%
same,EC50,[3],129 nM
O=c1cc(NCCc2cccc(Cl)c2)[nH]c(=O)[nH]1,Ki,[1],4.75 nM
Clc1cccc2[nH]cc(Cc3c[nH]c4cccc(Cl)c34)c12,%max,[2],94%
same,EC50,[3],175 nM
Clc1ccc2c(Cc3c[nH]c4cc(Cl)ccc34)c[nH]c2c1,IC50,[1],43700 nM
CCCC(c1c[nH]c2ccccc12)c1c[nH]c2ccccc12,IC50,[1],22400 nM
O=c1cc(NCCc2c[nH]c3ccccc23)[nH]c(=O)[nH]1,Ki,[1],497 nM
CCCCCCCCCNc1cc(=O)[nH]c(=O)[nH]1,Ki,[1],1.12 nM
O=c1cc(NCCc2cccs2)[nH]c(=O)[nH]1,Ki,[1],49.4 nM
Cc1ccc(CCSc2nc(O)cc(=O)[nH]2)cc1,Ki,[1],3.28 nM
Oc1cc(O)nc(SCCCCc2ccccc2)n1,Ki,[1],0.324 nM
Oc1cc(NCCCCc2ccccc2)nc(O)n1,Ki,[1],0.58 nM
O=c1cc(NCCCOc2ccccc2)[nH]c(=O)[nH]1,Ki,[1],2.1 nM
Fc1ccc2[nH]cc(Cc3c[nH]c4ccc(F)c(F)c34)c2c1F,%max,[2],67%
same,EC50,[3],83.6 nM
Fc1ccc2[nH]cc(Cc3c[nH]c4ccc(F)cc34)c2c1,%max,[2],125%
same,EC50,[3],199 nM
COc1ccc2[nH]cc(Cc3c[nH]c4ccccc34)c2c1,%max,[2],53%
same,EC50,[3],495 nM
Oc1cc(NCCc2ccccc2)nc(O)n1,Ki,[1],10.8 nM
CCCCCCSc1nc(O)cc(C(=O)O)n1,Ki,[1],145 nM
CCCCCNc1cc(=O)[nH]c(=O)[nH]1,Ki,[1],91 nM
O=c1cc(NCCc2ccccc2Cl)[nH]c(=O)[nH]1,Ki,[1],36 nM
CCCCCCCCCCCC(=O)O [DODECANOATE],EC50,[5],3490 nM
same,Ki,[1],2170 nM
CCCCCCNc1[nH]c(=O)[nH]c(=O)c1Br,Ki,[1],225 nM
Fc1cccc2c(Cc3c[nH]c4c(F)cccc34)c[nH]c12,%max,[2],153%
same,EC50,[3],61.8 nM
CCCCCCSc1nc(O)cc(C(=O)OC)n1,Ki,[1],> 10000 nM
same,inhibition,[11],9%
CCCCCCCC(O)CC(=O)O (racemic),EC50,[4],31800 nM
same,EC50,[5],4050 nM
same,Ki,[1],3310 nM
CCCCCCCCCCC[C@@H](O)CC(=O)O,EC50,[4],1750 nM
same,EC50,[5],452 nM
same,Ki,[1],472 nM
O=c1cc(N2CCC(Cc3ccccc3)CC2)[nH]c(=O)[nH]1,Ki,[1],18.7 nM
Fc1ccc2c(Cc3c[nH]c4cc(F)ccc34)c[nH]c2c1,%max,[2],57%
same,EC50,[3],302 nM
O=c1cc(NCCc2ccc(F)cc2)[nH]c(=O)[nH]1,Ki,[1],11.4 nM
Fc1cc(F)c2[nH]cc(Cc3c[nH]c4c(F)cc(F)cc34)c2c1,%max,[2],87%
O=Nc1c(NCCCc2ccccc2)[nH]c(=O)[nH]c1=O,Ki,[1],189 nM
CCC(c1c[nH]c2ccccc12)c1c[nH]c2ccccc12,IC50,[1],46300 nM
O=c1cc(O)nc(SCCc2ccc(Br)cc2)[nH]1,Ki,[1],3.17 nM
CC(C)(C)c1ccc(CCNc2cc(=O)[nH]c(=O)[nH]2)cc1,Ki,[1],1.27 nM
CCCCCCCCNC(=O)c1cc(=O)[nH]c(=O)[nH]1,Ki,[1],> 10000 nM
same,inhibition,[11],12%
CCCCCCC(O)C(=O)O (racemic),EC50,[4],> 100000 nM
same,EC50,[5],> 100000 nM
same,Ki,[1],100000 nM
same,inhibition,[11],50%
CCCCCCSc1nc(C)cc(O)n1,Ki,[1],3630 nM
O=c1cc(NCCc2cccc(Br)c2)[nH]c(=O)[nH]1,Ki,[1],3.99 nM
O=C(O)CCCCCCCCCCCO,EC50,[4],> 100000 nM
same,EC50,[5],> 100000 nM
same,Ki,[1],> 10000 nM
same,inhibition,[11],5%
CCCCCCCCCCCC(O)CC(=O)O (racemic),EC50,[4],1570 nM
same,EC50,[5],432 nM
same,Ki,[1],511 nM
O=c1cc(O)nc(SCCc2ccc(F)cc2)[nH]1,Ki,[1],3.77 nM
Brc1ccc2[nH]cc(Cc3c[nH]c4ccc(Br)cc34)c2c1,Selectivity ratio,[10],58
same,%max,[2],69%
same,EC50,[3],59.1 nM
O=c1cc(NCCc2cccc(F)c2)[nH]c(=O)[nH]1,Ki,[1],9.48 nM
CCCCCCCNc1cc(=O)[nH]c(=O)[nH]1,Ki,[1],0.866 nM
O=c1cc(N2CCN(C3CCc4ccccc43)CC2)[nH]c(=O)[nH]1 (centres undefined),Ki,[1],14.7 nM
CCCCOC(=O)c1cc(O)nc(O)n1,Ki,[1],> 10000 nM
same,inhibition,[11],-3%
CCCCCCN(C)c1cc(=O)[nH]c(=O)[nH]1,Ki,[1],6.94 nM
CCCCCCCCCNC(=O)c1cc(=O)[nH]c(=O)[nH]1,Ki,[1],> 10000 nM
same,inhibition,[11],26%
Fc1ccc2[nH]cc(Cc3c[nH]c4ccccc34)c2c1,%max,[2],55%
O=c1cc(NCCOc2ccccc2)[nH]c(=O)[nH]1,Ki,[1],3.12 nM
CCCCCCCCCC(O)CC(=O)O (racemic),EC50,[5],3250 nM
same,Ki,[1],110 nM
CCCCCCSc1nccc(O)n1,Ki,[1],3470 nM
